Patent EP4707280A1, “1,4-CINEOLE DERIVATIVE AND INTERMEDIATE THEREOF, HERBICIDE CONTAINING SAID DERIVATIVE AS ACTIVE INGREDIENT, METHOD FOR USING HERBICIDE, AND METHOD FOR PREPARING AGROCHEMICAL COMPOSITION” (HOKKO CHEMICAL INDUSTRY CO., LTD., priority 2023, dated 2024)

Tests used:
Assay type in all cases: in vivo
[1] = test system: Echinochloa crus-galli var. formosensis; test: Test Example 1: herbicidal effect test by soil application in paddy rice; settings: 120 g active ingredient per 10 ares, applied immediately after sowing, flooded pots, 14 days after application; for pest or weed control at 1200 g/ha: Echinochloa crus-galli, soil, 336 h, read-out: weed inhibition rate
Experimental: Wagner pots with an area of […] were filled with paddy soil, followed by addition of water and incorporation of chemical fertilizer (N:P:K = 16:16:16), after which puddling was performed. After that, seeds of Echinochloa crus-galli var. formosensis, broad-leaved weeds ([…] Monochoria vaginalis), and Scirpus juncoides were sown at a depth of 0 cm to 1 cm, 30 seeds each. Immediately after sowing, the pots were flooded and a water depth of approximately 3 cm was maintained. Subsequent management was conducted in a glass greenhouse. Immediately thereafter, an emulsifiable concentrate prepared according to Formulation Example 5 using the compound shown below was diluted with water, and a specified amount of the diluted solution was applied by dropper. The amount of the active ingredient to be applied was equivalent to 120 g per 10 ares.

[2] = test system: Echinochloa crus-galli var. formosensis; test: Test Example 2: herbicidal effect test by application during growth period of paddy rice; settings: 120 g per 10 ares, applied seven days after sowing, flooded pots, 14 days after application; for inhibition at 1200 g/ha: Echinochloa crus-galli, read-out: weed inhibition rate
Experimental: (§1) The present test was conducted in duplicate for each chemical concentration group, and the weed inhibition rate (%) was determined 14 days after chemical application using the following formula (Math. 1). [formula]
Wagner pots with an area of […] were filled with paddy soil, followed by addition of water and incorporation of chemical fertilizer (N:P:K = 16:16:16), after which puddling was performed. After that, seeds of Echinochloa crus-galli var. formosensis, broad-leaved weeds (Monochoria vaginalis), and Scirpus juncoides were sown at a depth of 0 cm to 1 cm, 30 seeds each. Immediately after sowing, the pots were flooded and a water depth of approximately 3 cm was maintained. Subsequent management was conducted in a glass greenhouse. Seven days after sowing, an emulsifiable concentrate prepared according to Formulation Example 5 using the compound shown below was diluted with water, and a specified amount of the diluted solution was applied by dropper. The amount of the active ingredient to be applied was equivalent to 120 g per 10 ares. The test was conducted in duplicate for each chemical concentration group, and the herbicidal effect was evaluated 14 days after chemical application using the same criteria as in Test Example 1.

Digitaria ciliaris [3] = test: Test Example 3: herbicidal effect test by soil application in upland field; settings: 120 g per 10 ares, sprayed one day after sowing, 14 days after application; for inhibition at 1200 g/ha: Digitaria ciliaris, read-out: weed inhibition rate
Experimental: as §1
(§2) Pots with an area of 36 cm^2 were filled with upland soil (alluvial loam), twenty seeds each of weeds of Digitaria ciliaris, Echinochloa crus-galli, Chenopodium album, and Amaranthus viridis were uniformly mixed with the top 1 cm layer of soil and the surface was lightly pressed down. One day after sowing, an emulsifiable concentrate prepared according to Formulation Example 5 using the compound shown below was diluted with water, and the diluted solution was sprayed onto the soil surface at a rate of 100 liters per 10 ares. The amount of the active ingredient to be applied was equivalent to 120 g per 10 ares. Fourteen days after chemical application, the herbicidal effect was evaluated according to the same criteria as in Test Example 1.

Echinochloa crus-galli [4] = test: as above; settings: 120 g per 10 ares, sprayed one day after sowing, 14 days after application; for inhibition at 1200 g/ha: Echinochloa crus-galli, read-out: weed inhibition rate
Experimental: as §1, §2

Digitaria ciliaris [5] = test: Test Example 4: herbicidal effect test by stem and leaf treatment in upland field; settings: 120 g per 10 ares, sprayed seven days after sowing, upland soil, 14 days after application; for inhibition at 1200 g/ha: Digitaria ciliaris, read-out: weed inhibition rate
Experimental: as §1
as §2, with “crus-galli,” for “crus-galli, Chenopodium album,”, “Seven days” for “One day”

Echinochloa crus-galli [6] = test: as above; settings: 120 g per 10 ares, sprayed seven days after sowing, upland soil, 14 days after application; for inhibition at 1200 g/ha: Echinochloa crus-galli, read-out: weed inhibition rate

CC(C)[C@@]12C[C@H](OCc3c(F)cccc3Cl)[C@@](C)(C[C@H]1I)O2 [1-1121, (1R,2S,4S,5R)-2-[(2-chloro-6-fluorophenyl)methoxy]-5-iodo-1-methyl-4-isopropyl-7-oxabicyclo[2.2.1]heptane]
≥ 80%: pest or weed control at 1200 g/ha [1] | inhibition at 1200 g/ha [2] | inhibition at 1200 g/ha (Digitaria ciliaris [3]) | inhibition at 1200 g/ha (Echinochloa crus-galli [4]) | inhibition at 1200 g/ha (Digitaria ciliaris [5]) | inhibition at 1200 g/ha (Echinochloa crus-galli [6])

COc1ccc(COC2CC3(C(C)C)OC2(C)CC3Br)cc1 (stereo not drawn) [1-1351, 5-bromo-2-[(4-methoxyphenyl)methoxy]-1-methyl-4-isopropyl-7-oxabicyclo[2.2.1]heptane]
≥ 80%: pest or weed control at 1200 g/ha [1] | inhibition at 1200 g/ha [2] | inhibition at 1200 g/ha (Digitaria ciliaris [3]) | inhibition at 1200 g/ha (Echinochloa crus-galli [4]) | inhibition at 1200 g/ha (Digitaria ciliaris [5]) | inhibition at 1200 g/ha (Echinochloa crus-galli [6])

CC(C)C12CC(OCc3c(Cl)cccc3Cl)C(C)(CC1Br)O2 (stereo not drawn) [1-1380, 5-bromo-2-[(2,6-dichlorophenyl)methoxy]-1-methyl-4-isopropyl-7-oxabicyclo[2.2.1]heptane]
≥ 80%: pest or weed control at 1200 g/ha [1] | inhibition at 1200 g/ha [2] | inhibition at 1200 g/ha (Digitaria ciliaris [3]) | inhibition at 1200 g/ha (Echinochloa crus-galli [4]) | inhibition at 1200 g/ha (Digitaria ciliaris [5]) | inhibition at 1200 g/ha (Echinochloa crus-galli [6])

CC(C)[C@@]12C[C@H](OCc3c(Cl)cccc3Cl)[C@@](C)(C[C@H]1Br)O2 [1-1053, (1R,2S,4S,5R)-5-bromo-2-[(2,6-dichlorophenyl)methoxy]-1-methyl-4-isopropyl-7-oxabicyclo[2.2.1]heptane]
≥ 80%: pest or weed control at 1200 g/ha [1] | inhibition at 1200 g/ha [2] | inhibition at 1200 g/ha (Digitaria ciliaris [3]) | inhibition at 1200 g/ha (Echinochloa crus-galli [4]) | inhibition at 1200 g/ha (Digitaria ciliaris [5]) | inhibition at 1200 g/ha (Echinochloa crus-galli [6])

CC(C)[C@@]12C[C@H](OCc3ccccc3Cl)[C@@](C)(CC1Br)O2 (mixture of isomers) [1-1031, (1R,2S,4S,SR)-5-bromo-2-[(2-chlorophenyl)methoxy]-1-methyl-4-isopropyl-7-oxabicyclo[2.2.1]heptane]
≥ 80%: pest or weed control at 1200 g/ha [1] | inhibition at 1200 g/ha [2] | inhibition at 1200 g/ha (Digitaria ciliaris [3]) | inhibition at 1200 g/ha (Echinochloa crus-galli [4]) | inhibition at 1200 g/ha (Digitaria ciliaris [5]) | inhibition at 1200 g/ha (Echinochloa crus-galli [6])

CC(C)[C@]12C[C@@H](OCc3ccccc3F)[C@](C)(C[C@@H]1OCC(F)(F)F)O2 [1-1605, (1S,2R,4R,5S)-2-[(2-fluorophenyl)methoxy]-1-methyl-4-isopropyl-5-(2,2,2-trifluoroethoxy)-7-oxabicyclo[2.2.1]heptane]
≥ 80%: pest or weed control at 1200 g/ha [1] | inhibition at 1200 g/ha [2] | inhibition at 1200 g/ha (Digitaria ciliaris [3]) | inhibition at 1200 g/ha (Echinochloa crus-galli [4]) | inhibition at 1200 g/ha (Digitaria ciliaris [5]) | inhibition at 1200 g/ha (Echinochloa crus-galli [6])

CC(C)C12CC(OCc3ccccc3OC(F)(F)F)C(C)(CC1Br)O2 (stereo not drawn) [1-1352, 5-bromo-1-methyl-4-isopropyl-2-[[2-(trifluoromethoxy)phenyl]methoxy]-7-oxabicyclo[2.2.1]heptane]
≥ 80%: pest or weed control at 1200 g/ha [1] | inhibition at 1200 g/ha [2] | inhibition at 1200 g/ha (Digitaria ciliaris [3]) | inhibition at 1200 g/ha (Echinochloa crus-galli [4]) | inhibition at 1200 g/ha (Digitaria ciliaris [5]) | inhibition at 1200 g/ha (Echinochloa crus-galli [6])

CC(C)C12CC(OCc3ccc(Cl)cc3Cl)C(C)(CC1Br)O2 (stereo not drawn) [1-1385, 5-bromo-2-[(2,4-dichlorophenyl)methoxy]-1-methyl-4-isopropyl-7-oxabicyclo[2.2.1]heptane]
≥ 80%: pest or weed control at 1200 g/ha [1] | inhibition at 1200 g/ha [2] | inhibition at 1200 g/ha (Digitaria ciliaris [3]) | inhibition at 1200 g/ha (Echinochloa crus-galli [4]) | inhibition at 1200 g/ha (Digitaria ciliaris [5]) | inhibition at 1200 g/ha (Echinochloa crus-galli [6])

CCc1ccccc1COC1CC2(C(C)C)OC1(C)CC2Br (stereo not drawn) [1-1346, 5-bromo-2-[(2-ethylphenyl)methoxy]-1-methyl-4-isopropyl-7-oxabicyclo[2.2.1]heptane]
≥ 80%: pest or weed control at 1200 g/ha [1] | inhibition at 1200 g/ha [2] | inhibition at 1200 g/ha (Digitaria ciliaris [3]) | inhibition at 1200 g/ha (Echinochloa crus-galli [4]) | inhibition at 1200 g/ha (Digitaria ciliaris [5]) | inhibition at 1200 g/ha (Echinochloa crus-galli [6])

CC(C)C12CC(OCc3ccc(Br)cc3)C(C)(CC1Br)O2 (stereo not drawn) [1-1363, 5-bromo-2-[(4-bromophenyl)methoxy]-1-methyl-4-isopropyl-7-oxabicyclo[2.2.1]heptane]
≥ 80%: pest or weed control at 1200 g/ha [1] | inhibition at 1200 g/ha [2] | inhibition at 1200 g/ha (Digitaria ciliaris [3]) | inhibition at 1200 g/ha (Echinochloa crus-galli [4]) | inhibition at 1200 g/ha (Digitaria ciliaris [5]) | inhibition at 1200 g/ha (Echinochloa crus-galli [6])

CC(C)C12CC(OCc3ccccc3C#N)C(C)(CC1Br)O2 (stereo not drawn) [1-1370, 2-[(5-bromo-1-methyl-4-isopropyl-7-oxabicyclo[2.2.1]heptan-2-yl)oxymethyl]benzonitrile]
≥ 80%: pest or weed control at 1200 g/ha [1] | inhibition at 1200 g/ha [2] | inhibition at 1200 g/ha (Digitaria ciliaris [3]) | inhibition at 1200 g/ha (Echinochloa crus-galli [4]) | inhibition at 1200 g/ha (Digitaria ciliaris [5]) | inhibition at 1200 g/ha (Echinochloa crus-galli [6])

CC(C)=CCO[C@H]1C[C@@]2(C(C)C)O[C@]1(C)C[C@H]2I [1-1073, (1R,2S,4S,5R)-5-iodo-1-methyl-2-(3-methylbut-2-enoxy)-4-isopropyl-7-oxabicyclo[2.2.1]heptane]
≥ 80%: pest or weed control at 1200 g/ha [1] | inhibition at 1200 g/ha [2] | inhibition at 1200 g/ha (Digitaria ciliaris [3]) | inhibition at 1200 g/ha (Echinochloa crus-galli [4]) | inhibition at 1200 g/ha (Digitaria ciliaris [5]) | inhibition at 1200 g/ha (Echinochloa crus-galli [6])

CC(C)[C@]12C[C@@H](OCc3cccc(Br)c3)[C@](C)(C[C@@H]1Br)O2 [1-695, (1S,2R,4R,5S)-5-bromo-2-[(3-bromophenyl)methoxy]-1-methyl-4-isopropyl-7-oxabicyclo[2.2.1]heptane]
≥ 80%: pest or weed control at 1200 g/ha [1] | inhibition at 1200 g/ha [2] | inhibition at 1200 g/ha (Digitaria ciliaris [3]) | inhibition at 1200 g/ha (Echinochloa crus-galli [4]) | inhibition at 1200 g/ha (Digitaria ciliaris [5]) | inhibition at 1200 g/ha (Echinochloa crus-galli [6])

CC(C)[C@@]12C[C@H](OCc3ccccc3)[C@@](C)(C[C@H]1Br)O2 [1-1015, (1R,2S,4S,5R)-5-bromo-1-methyl-2-phenylmethoxy-4-isopropyl-7-oxabicyclo[2.2.1]heptane]
≥ 80%: pest or weed control at 1200 g/ha [1] | inhibition at 1200 g/ha [2] | inhibition at 1200 g/ha (Digitaria ciliaris [3]) | inhibition at 1200 g/ha (Echinochloa crus-galli [4]) | inhibition at 1200 g/ha (Digitaria ciliaris [5]) | inhibition at 1200 g/ha (Echinochloa crus-galli [6])

CC(C)[C@@]12C[C@H](OCc3c(F)cccc3F)[C@@](C)(C[C@H]1Br)O2 [1-1052, (1R,28,48,5R)-5-bromo-2-[(2,6-difluorophenyl)methoxy]-1-methyl-4-isopropyl-7-oxabicyclo[2.2.1]heptane]
≥ 80%: weed inhibition rate [1] | weed inhibition rate [2] | weed inhibition rate (Digitaria ciliaris [3]) | weed inhibition rate (Echinochloa crus-galli [4]) | weed inhibition rate (Digitaria ciliaris [5]) | weed inhibition rate (Echinochloa crus-galli [6])

CC(C)=CCO[C@H]1C[C@@]2(C(C)C)O[C@]1(C)CC2Br (mixture of isomers) [1-1007, (1R,2S,4S,SR)-5-bromo-1-methyl-2-(3-methylbut-2-enoxy)-4-isopropyl-7-oxabicyclo[2.2.1]heptane]
≥ 80%: pest or weed control at 1200 g/ha [1] | inhibition at 1200 g/ha [2] | inhibition at 1200 g/ha (Digitaria ciliaris [3]) | inhibition at 1200 g/ha (Echinochloa crus-galli [4]) | inhibition at 1200 g/ha (Digitaria ciliaris [5]) | inhibition at 1200 g/ha (Echinochloa crus-galli [6])

Cc1cccc(COC2CC3(C(C)C)OC2(C)CC3Br)c1 (stereo not drawn) [1-1344, 5-bromo-1-methyl-2-[(3-methylphenyl)methoxy]-4-isopropyl-7-oxabicyclo[2.2.1]heptane]
≥ 80%: pest or weed control at 1200 g/ha [1] | inhibition at 1200 g/ha [2] | inhibition at 1200 g/ha (Digitaria ciliaris [3]) | inhibition at 1200 g/ha (Echinochloa crus-galli [4]) | inhibition at 1200 g/ha (Digitaria ciliaris [5]) | inhibition at 1200 g/ha (Echinochloa crus-galli [6])
